# Experimental data: PubChem BioAssay (NCI)
#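 Method: 48-hour compound exposure of cells in 96-well plates, five concentrations, linear interpolation of endpoints. Definition used: TGI = concentration required for complete inhibition of growth.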
# Key:
# Experiment in all cases: NCI-60 cell line screen, 48 h
# HS 578T breast = tested on: HS 578T breast
# SK-MEL-5 melanoma = tested on: SK-MEL-5 melanoma
# EKVX NSCLC = tested on: EKVX NSCLC
# SNB-19 CNS = tested on: SNB-19 CNS
# BT-549 breast = tested on: BT-549 breast
# HCT-116 colon = tested on: HCT-116 colon
# OVCAR-8 ovarian = tested on: OVCAR-8 ovarian
# IGROV1 ovarian = tested on: IGROV1 ovarian
# UACC-257 melanoma = tested on: UACC-257 melanoma
# UACC-62 melanoma = tested on: UACC-62 melanoma
# OVCAR-4 ovarian = tested on: OVCAR-4 ovarian
# HOP-92 NSCLC = tested on: HOP-92 NSCLC
# CCRF-CEM leukemia = tested on: CCRF-CEM leukemia
# COLO 205 colon = tested on: COLO 205 colon
# SK-OV-3 ovarian = tested on: SK-OV-3 ovarian
# NCI-H226 lung = tested on: NCI-H226 lung
# MDA-MB-231 breast = tested on: MDA-MB-231 breast
# NCI-H460 lung = tested on: NCI-H460 lung
# CAKI-1 renal = tested on: CAKI-1 renal
# A549 NSCLC = tested on: A549 NSCLC
# MDA-MB-435 = tested on: MDA-MB-435
# SW-620 colon = tested on: SW-620 colon
# KM12 colon = tested on: KM12 colon
# NCI-H23 lung = tested on: NCI-H23 lung
# U251 CNS = tested on: U251 CNS
# TK-10 renal = tested on: TK-10 renal
# SF-539 CNS = tested on: SF-539 CNS
# SK-MEL-2 melanoma = tested on: SK-MEL-2 melanoma
# SF-295 CNS = tested on: SF-295 CNS
# HCC-2998 colon = tested on: HCC-2998 colon
# MCF7 breast = tested on: MCF7 breast
# NCI/ADR-RES ovarian = tested on: NCI/ADR-RES ovarian
# MDA-N = tested on: MDA-N
# HL-60(TB) leukemia = tested on: HL-60(TB) leukemia
# HT29 colon = tested on: HT29 colon
# SNB-75 CNS = tested on: SNB-75 CNS
# PC-3 prostate = tested on: PC-3 prostate
# HCT-15 colon = tested on: HCT-15 colon
# 786-0 renal = tested on: 786-0 renal
# RXF 393 renal = tested on: RXF 393 renal
# SN12C renal = tested on: SN12C renal
# SF-268 CNS = tested on: SF-268 CNS
# UO-31 renal = tested on: UO-31 renal
# ACHN renal = tested on: ACHN renal
# LOX IMVI melanoma = tested on: LOX IMVI melanoma
# MOLT-4 leukemia = tested on: MOLT-4 leukemia
# NCI-H522 lung = tested on: NCI-H522 lung
# DU-145 prostate = tested on: DU-145 prostate
# SK-MEL-28 melanoma = tested on: SK-MEL-28 melanoma
# HOP-62 NSCLC = tested on: HOP-62 NSCLC
# K-562 leukemia = tested on: K-562 leukemia
# MALME-3M melanoma = tested on: MALME-3M melanoma
# RPMI-8226 leukemia = tested on: RPMI-8226 leukemia
# SR leukemia = tested on: SR leukemia
# T-47D breast = tested on: T-47D breast
# M14 melanoma = tested on: M14 melanoma
smiles,measurement,setting,value
Cc1nc(C(N)=S)sc1C(/C=C/c1ccc(Cl)c(Cl)c1)=N/NC(C)(C)C,TGI,HS 578T breast,> 100 µM
same,TGI,SK-MEL-5 melanoma,> 100 µM
same,TGI,EKVX NSCLC,> 100 µM
same,TGI,SNB-19 CNS,> 100 µM
same,TGI,BT-549 breast,> 100 µM
same,TGI,HCT-116 colon,> 100 µM
same,TGI,OVCAR-8 ovarian,> 100 µM
same,TGI,IGROV1 ovarian,> 100 µM
same,TGI,UACC-257 melanoma,> 100 µM
same,TGI,UACC-62 melanoma,> 100 µM
same,TGI,OVCAR-4 ovarian,> 100 µM
same,TGI,HOP-92 NSCLC,> 100 µM
same,TGI,CCRF-CEM leukemia,> 100 µM
same,TGI,COLO 205 colon,> 100 µM
same,TGI,SK-OV-3 ovarian,> 100 µM
same,TGI,NCI-H226 lung,> 100 µM
same,TGI,MDA-MB-231 breast,> 100 µM
same,TGI,NCI-H460 lung,> 100 µM
same,TGI,CAKI-1 renal,> 100 µM
same,TGI,A549 NSCLC,> 100 µM
same,TGI,MDA-MB-435,> 100 µM
same,TGI,SW-620 colon,> 100 µM
same,TGI,KM12 colon,> 100 µM
same,TGI,NCI-H23 lung,> 100 µM
same,TGI,U251 CNS,> 100 µM
same,TGI,TK-10 renal,> 100 µM
same,TGI,SF-539 CNS,> 100 µM
same,TGI,SK-MEL-2 melanoma,> 100 µM
same,TGI,SF-295 CNS,> 100 µM
same,TGI,HCC-2998 colon,> 100 µM
same,TGI,MCF7 breast,> 100 µM
same,TGI,NCI/ADR-RES ovarian,> 100 µM
same,TGI,MDA-N,> 100 µM
same,TGI,HL-60(TB) leukemia,> 100 µM
same,TGI,HT29 colon,> 100 µM
same,TGI,SNB-75 CNS,> 100 µM
same,TGI,PC-3 prostate,> 100 µM
same,TGI,HCT-15 colon,> 100 µM
same,TGI,786-0 renal,> 100 µM
same,TGI,RXF 393 renal,> 100 µM
same,TGI,SN12C renal,> 100 µM
same,TGI,SF-268 CNS,> 100 µM
same,TGI,UO-31 renal,> 100 µM
same,TGI,ACHN renal,> 100 µM
same,TGI,LOX IMVI melanoma,> 100 µM
same,TGI,MOLT-4 leukemia,80.5 µM
same,TGI,NCI-H522 lung,> 100 µM
same,TGI,DU-145 prostate,> 100 µM
same,TGI,SK-MEL-28 melanoma,> 100 µM
O=[N+]([O-])c1ccc(/C=N/Nc2nnc3c4ccccc4c4ncccc4c3n2)o1,TGI,SK-MEL-5 melanoma,> 10 µM
same,TGI,EKVX NSCLC,> 10 µM
same,TGI,OVCAR-8 ovarian,> 10 µM
same,TGI,IGROV1 ovarian,> 10 µM
same,TGI,UACC-257 melanoma,> 10 µM
same,TGI,UACC-62 melanoma,> 10 µM
same,TGI,CCRF-CEM leukemia,> 10 µM
same,TGI,COLO 205 colon,> 10 µM
same,TGI,SK-OV-3 ovarian,> 10 µM
same,TGI,MDA-MB-231 breast,> 10 µM
same,TGI,CAKI-1 renal,> 10 µM
same,TGI,A549 NSCLC,> 10 µM
same,TGI,SW-620 colon,> 10 µM
same,TGI,KM12 colon,> 10 µM
same,TGI,NCI-H23 lung,> 10 µM
same,TGI,TK-10 renal,> 10 µM
same,TGI,SF-295 CNS,> 10 µM
same,TGI,HCC-2998 colon,> 10 µM
same,TGI,MCF7 breast,> 10 µM
same,TGI,MDA-N,> 10 µM
same,TGI,HOP-62 NSCLC,> 10 µM
same,TGI,K-562 leukemia,> 10 µM
same,TGI,HL-60(TB) leukemia,> 10 µM
same,TGI,MALME-3M melanoma,> 10 µM
same,TGI,HT29 colon,> 10 µM
same,TGI,RPMI-8226 leukemia,> 10 µM
same,TGI,SNB-75 CNS,> 10 µM
same,TGI,PC-3 prostate,> 10 µM
same,TGI,HCT-15 colon,> 10 µM
same,TGI,786-0 renal,> 10 µM
same,TGI,RXF 393 renal,> 10 µM
same,TGI,SR leukemia,> 10 µM
same,TGI,SN12C renal,> 10 µM
same,TGI,SF-268 CNS,> 10 µM
same,TGI,T-47D breast,> 10 µM
same,TGI,M14 melanoma,> 10 µM
same,TGI,MOLT-4 leukemia,> 10 µM
same,TGI,DU-145 prostate,> 10 µM
same,TGI,SK-MEL-28 melanoma,> 10 µM
